According to US4130709A, “Pleuromutilin glycoside derivatives” (Eli Lilly and Company, priority 1977, dated 1978):
Values after ≈ are worked out from the molar mass of the structure shown. Where two headings read alike, the source gives them in different places.

Columns and labels:
Assay type in all cases: cell-based
[1] = test system: Bacteroides melaninogenicus 2736; assay: standard agar-dilution test, anaerobic bacteria; details: Bacteroides melaninogenicus 2736; 24-hour incubation; read-out: MIC
Bacteroides vulgatis = assay: standard agar-dilution test, anaerobic bacteria
[2] = test system: Bacteroides fragilis 1877; assay: standard agar-dilution test, anaerobic bacteria
Fusobacterium symbiosum = assay: standard agar-dilution test, anaerobic bacteria
Bacteroides fragilis 111 = assay: standard agar-dilution test, anaerobic bacteria
[3] = test system: Fusobacterium necrophorum; assay: standard agar-dilution test, anaerobic bacteria
Clostridium septicum = assay: standard agar-dilution test, anaerobic bacteria; details: 24-hour incubation
Description: (§1) Table IV summarizes the activity of typical compounds of this invention, as determined by the standard agar-dilution test.
(§2) *Endpoint read after 24-hour incubation

[4] = test system: Bacteroides thetaiotaomicron; assay: standard agar-dilution test, anaerobic bacteria; details: 24-hour incubation
Description: as §1, §2

[5] = test system: Bacteroides melaninogenicus 1856/28; assay: standard agar-dilution test, anaerobic bacteria; details: Prevotella intermedia
Clostridium perfringens = assay: microbe, parasite or virus in culture; details: 24 h
[6] = test system: Peptococcus asaccharolyticus; assay: standard agar-dilution test, anaerobic bacteria; details: Peptoniphilus asaccharolyticus, 24-hour incubation
[7] = test system: Peptostreptococcus intermedius; assay: standard agar-dilution test, anaerobic bacteria
Actinomyces israelii = assay: standard agar-dilution test, anaerobic bacteria; details: 24-hour incubation
Bacteroides corrodens = assay: standard agar-dilution test, anaerobic bacteria; details: Eikenella corrodens
Peptococcus prevoti = assay: standard agar-dilution test, anaerobic bacteria
[8] = test system: Bacteroides fragilis 1936B; assay: standard agar-dilution test, anaerobic bacteria
Eubacterium aerofaciens = assay: standard agar-dilution test, anaerobic bacteria; details: Collinsella aerofaciens
[9] = test system: Staphylococcus aureus (H-Heatley) NRRL B-314; assay: in vitro turbidometric assay (Autoturb Microbiological Assay System) against Staphylococcus aureus; details: nutrient broth pH 7, approximately 4 hours at 37° C., A-40104 factor A as standard
Description: The compounds are conveniently tested against a typical gram-positive organism, Staphylococcus aureus, using a turbidometric assay on a semi-automated system (Autoturb Microbiological Assay System, Elanco) described by N. R. Kuzel and F. W. Kavanagh in J. Pharmaceut. Sci, 60 (5), 764 and 767 (1971). In testing these compounds, the following parameters were used: Staphylococcus aureus (H-Heatley) NRRL B-314 in a nutrient broth medium (pH 7), incubated for approximately 4 hours at 37° C. Test samples and A-40104 factor A, which is used as a standard, were dissolved in water. The standard was presented to the Autoturb carrousel at concentrations of 1.25, 2.50, 3.75, 5.00 and 6.25 mcg/ml. Test compounds were diluted to contain approximately 2.5 to 5.0 mcg of activity per ml, as presented to the carrousel. The units of activity of some of the typical compounds of this invention (R^2 =H in group tested) in this in vitro assay are summarized in Table I

Spiroplasma citri = assay: in vitro inhibition of Spiroplasma citri measured by a color reaction; design: key to Activity (color reaction): Red (R) includes complete inhibition; red-orange (RO) indicates partial inhibition; yellow (Y) indicates no inhibition
Description: In another important aspect, the compounds of this invention are active against Spiroplasmas. Spiroplasma citri is the causative agent of citrus-stubborn disease; another Spiroplasma, corn-stunt Spiroplasma, affects the growth of corn. Table VII summarizes the in vitro activity of representative compounds of the present invention (R^2 =H in this group) against Spiroplasma citri. In this test, inhibition of S. citri is measured by a color reaction. Red (R) includes complete inhibition; red-orange (RO) indicates partial inhibition; and yellow (Y) indicates no inhibition.

[10] = test system: Peptostreptococcus anaerobius; assay: standard agar-dilution test, anaerobic bacteria; details: 24-hour incubation
Mycoplasma gallisepticum = assay: in vitro broth-dilution studies, mycoplasma; details: Mycoplasmoides gallisepticum
From the text: (§3) The minimal inhibitory concentrations (MIC's) of a number of typical compounds of the present invention (R^2 =H in group tested) against various mycoplasma species, as determined by in vitro broth-dilution studies, are summarized in Table V.

Mycoplasma synoviae = assay: in vitro broth-dilution studies, mycoplasma; details: Mycoplasmopsis synoviae
From the text: as §3

Mycoplasma hyorhinis = assay: in vitro broth-dilution studies, mycoplasma
From the text: as §3

[11] = Bacteroides vulgatis, 24-hour incubation, read-out: MIC
[12] = Bacteroides fragilis 1877, 24-hour incubation, read-out: MIC
[13] = Fusobacterium symbiosum, 24-hour incubation, read-out: MIC
[14] = Bacteroides fragilis 111, 24-hour incubation, read-out: MIC
[15] = 24-hour incubation, read-out: MIC
[16] = Bacteroides melaninogenicus 1856/28, 24-hour incubation, read-out: MIC
[17] = Peptostreptococcus intermedius, 24-hour incubation, read-out: MIC
[18] = Bacteroides corrodens, 24-hour incubation, read-out: MIC
[19] = Peptococcus prevoti, 24-hour incubation, read-out: MIC
[20] = Bacteroides fragilis 1936B, 24-hour incubation, read-out: MIC
[21] = Eubacterium aerofaciens, 24-hour incubation, read-out: MIC
[22] = Bacteroides fragilis, 111, 24 h

| Compound | MIC [1] [µg/mL] | MIC (Bacteroides vulgatis; [11]) [µg/mL] | MIC [2, 12] [µg/mL] | MIC [3, 15] [µg/mL] | MIC (Clostridium septicum) [µg/mL] | MIC [4] [µg/mL] | MIC (Clostridium perfringens) [µg/mL] | MIC [6] [µg/mL] | MIC [7, 17] [µg/mL] | MIC (Actinomyces israelii) [µg/mL] | MIC (Bacteroides corrodens; [18]) [µg/mL] | MIC (Peptococcus prevoti; [19]) [µg/mL] | MIC [8, 20] [µg/mL] | Units of Activity [9] [µg/mg] | Activity (color reaction) (Spiroplasma citri; 1.0 ppm) | MIC [10] [µg/mL] | MIC (Mycoplasma gallisepticum) [µg/mL] | MIC (Mycoplasma synoviae) [µg/mL] | MIC (Mycoplasma hyorhinis) [µg/mL] | other results |
| --- | --- | --- | --- | --- | --- | --- | --- | --- | --- | --- | --- | --- | --- | --- | --- | --- | --- | --- | --- | --- |
| CC[C@]1(C)C[C@@H](OC(=O)CS[C@@H]2O[C@H](CO)[C@@H](O)[C@H](O)[C@H]2O)[C@]2(C)[C@H](C)CC[C@]3(CCC(=O)[C@H]32)[C@@H](C)[C@@H]1O [Compound 5, 14-deoxy-14-[(β-D-glucopyranosyl)thioacetoxy]-19,20-dihydromutilin] | 4 (≈ 7.16 µM) | 32 (≈ 57.3 µM) | 64 (≈ 115 µM) | 8 (≈ 14.3 µM) | 32 (≈ 57.3 µM) | 64 (≈ 115 µM) | 8 (≈ 14.3 µM) | 4 (≈ 7.16 µM) | 2 (≈ 3.58 µM) | ≤ 0.5 | 64 (≈ 115 µM) | 2 (≈ 3.58 µM) | 128 (≈ 229 µM) | 29 to 31 | R | 8 (≈ 14.3 µM) |  |  |  | MIC (Fusobacterium symbiosum; [13]): 16 µg/mL (≈ 28.6 µM); MIC (Bacteroides fragilis 111; [14]): 64 µg/mL (≈ 115 µM); MIC [5, 16]: 2 µg/mL (≈ 3.58 µM); MIC (Eubacterium aerofaciens; [21]): 4 µg/mL (≈ 7.16 µM); Activity (color reaction) (Spiroplasma citri; 0.01 ppm): Y; Activity (color reaction) (Spiroplasma citri; 0.05 ppm): R; Activity (color reaction) (Spiroplasma citri; 0.1 ppm): R |
| C=C[C@]1(C)C[C@@H](OC(=O)CO[C@H]2O[C@H](COC(C)=O)[C@@H](OC(C)=O)[C@H](OC(C)=O)C2=NO)[C@]2(C)[C@H](C)CC[C@]3(CCC(=O)[C@H]32)[C@@H](C)[C@@H]1O [Compound 7, 14-deoxy-14-[(2-deoxy-2-(hydroxyimino)-3,4,6-tri-O-acetyl-α-D-glucopyranosyl)oxyacetoxy]mutilin] | 32 (≈ 47.1 µM) |  |  |  | > 128 | > 128 | > 128 | 64 (≈ 94.2 µM) |  | 64 (≈ 94.2 µM) |  |  |  | 11 to 12 |  | 64 (≈ 94.2 µM) | 0.78 (≈ 1.15 µM) | > 6.25 | 0.78 (≈ 1.15 µM) | MIC (Bacteroides vulgatis; Bacteroides, 24 h): > 128 µg/mL; MIC ([2]; Bacteroides fragilis, 1877, 24 h): > 128 µg/mL; MIC (Fusobacterium symbiosum; Fusobacterium, 24 h): > 128 µg/mL; MIC (Bacteroides fragilis 111; [22]): > 128 µg/mL; MIC ([3]; 24 h): > 128 µg/mL; MIC ([5]; 1856/28, 24 h): > 128 µg/mL; MIC ([7]; Peptostreptococcus, 24 h): > 128 µg/mL; MIC (Bacteroides corrodens; 24 h): > 128 µg/mL; MIC (Peptococcus prevoti; 24 h): 128 µg/mL (≈ 188 µM); MIC ([8]; Bacteroides fragilis, 1936B, 24 h): > 128 µg/mL; MIC (Eubacterium aerofaciens; 24 h): > 128 µg/mL |
| C=C[C@]1(C)C[C@@H](OC(=O)CS[C@@H]2O[C@H](CO)[C@@H](O)[C@H](O)[C@H]2O)[C@]2(C)[C@H](C)CC[C@]3(CCC(=O)[C@H]32)[C@@H](C)[C@@H]1O [Compound 10, 14-deoxy-14-[(β-D-glucopyranosyl)thioacetoxy]mutilin] | 32 (≈ 57.5 µM) | 64 (≈ 115 µM) | 64 (≈ 115 µM) | 2 (≈ 3.59 µM) | 64 (≈ 115 µM) | 64 (≈ 115 µM) | 64 (≈ 115 µM) | 16 (≈ 28.7 µM) | 4 (≈ 7.18 µM) | 2 (≈ 3.59 µM) | 64 (≈ 115 µM) | 16 (≈ 28.7 µM) | 64 (≈ 115 µM) | 36 |  | ≤ 0.5 | 1.56 (≈ 2.8 µM) | 3.12 (≈ 5.6 µM) | 1.56 (≈ 2.8 µM) | MIC (Fusobacterium symbiosum; [13]): 64 µg/mL (≈ 115 µM); MIC (Bacteroides fragilis 111; [14]): 128 µg/mL (≈ 230 µM); MIC [5, 16]: > 128 µg/mL; MIC (Eubacterium aerofaciens; [21]): 16 µg/mL (≈ 28.7 µM) |
| C=C[C@]1(C)C[C@@H](OC(=O)CS[C@@H]2O[C@H](COC(C)=O)[C@@H](OC(C)=O)[C@H](OC(C)=O)[C@H]2OC(C)=O)[C@]2(C)[C@H](C)CC[C@]3(CCC(=O)[C@H]32)[C@@H](C)[C@@H]1O [Compound 11, 14-deoxy-14-[(2,3,4,6-tetra-O-acetyl-β-D-glucopyranosyl)thioacetoxy]mutilin] | 16 (≈ 22.1 µM) | 32 (≈ 44.1 µM) | 32 (≈ 44.1 µM) | 16 (≈ 22.1 µM) | 16 (≈ 22.1 µM) | 16 (≈ 22.1 µM) | > 128 | ≤ 0.5 | 1 (≈ 1.38 µM) | ≤ 0.5 | 32 (≈ 44.1 µM) | ≤ 0.5 | 32 (≈ 44.1 µM) | 253 to 265 |  | ≤ 0.5 | > 0.78 | 1.56 (≈ 2.15 µM) | > 0.78 | MIC (Fusobacterium symbiosum; Fusobacterium, 24 h): 128 µg/mL (≈ 177 µM); MIC (Bacteroides fragilis 111; [22]): 128 µg/mL (≈ 177 µM); MIC ([5]; 1856/28, 24 h): > 128 µg/mL; MIC (Eubacterium aerofaciens; 24 h): > 128 µg/mL |
| C=C[C@]1(C)C[C@@H](OC(=O)CO[C@H]2O[C@H](COCc3ccccc3)[C@@H](OCc3ccccc3)[C@H](OCc3ccccc3)[C@H]2OCc2ccccc2)[C@]2(C)[C@H](C)CC[C@]3(CCC(=O)[C@H]32)[C@@H](C)[C@@H]1O [Example 1, 14-deoxy-14-[(2,3,4,6-tetra-O-benzyl-α-D-glucopyranosyl)oxyacetoxy]mutilin] |  |  |  |  |  |  |  |  |  |  |  |  |  |  |  |  | 25 (≈ 27.7 µM) | 50 (≈ 55.5 µM) | 50 (≈ 55.5 µM) |  |
| C=C[C@]1(C)C[C@@H](OC(=O)CO[C@@H]2O[C@H](COC(C)=O)[C@@H](OC(C)=O)[C@H](OC(C)=O)[C@H]2OC(C)=O)[C@]2(C)[C@H](C)CC[C@]3(CCC(=O)[C@H]32)[C@@H](C)[C@@H]1O [Example 3, 14-deoxy-14-[(2,3,4,6-tetra-O-acetyl-β-D-glucopyranosyl)oxyacetoxy]mutilin] |  |  |  |  |  |  |  |  |  |  |  |  |  | 75 to 85 | R |  | 0.78 (≈ 1.1 µM) | 0.78 (≈ 1.1 µM) | 0.78 (≈ 1.1 µM) |  |
| C=C[C@]1(C)C[C@@H](OC(=O)CO[C@@H]2O[C@H](CO)[C@@H](O)[C@H](O)[C@H]2O)[C@]2(C)[C@H](C)CC[C@]3(CCC(=O)[C@H]32)[C@@H](C)[C@@H]1O [Example 4, 14-deoxy-14-[(β-D-glucopyranosyl)oxyacetoxy]-mutilin] |  |  |  |  |  |  |  |  |  |  |  |  |  | 12 to 13 | R |  | 0.39 (≈ 0.721 µM) | 0.78 (≈ 1.44 µM) | 0.78 (≈ 1.44 µM) | Activity (color reaction) (Spiroplasma citri; 0.1 ppm): Y |
